According to patent US11834460B2, “Imide-based modulators of proteolysis and associated methods of use” (YALE UNIVERSITY, priority 2018, dated 2023):

Test system: c-Myc
Test: c-Myc ELISA assay protocol in 22RV-1 cells
Format: cell-based, human
Conditions: 18 h, read-out: cMyc IC50
Method: In each bioassay, cells were treated with varying amounts of compounds encompassed by the present disclosure, as shown in Table 1. The degradation of the following proteins were evaluated in this study: TANK-binding kinase 1 (TBK1), estrogen receptor α (ERα), bromodomain-containing protein 4 (BRD4), androgen receptor (AR), and c-Myc.
5. c-Myc ELISA Assay Protocol
22RV-1 cells were purchased from ATCC and cultured in RPMI+10% FBS media. Cells were harvested using trypsin (Gibco #25200-114), counted and seeded at 30,000 cells/well at a volume of 75 μL/well in RPMI +10% FBS media in 96-well plates. The cells were dosed with compounds diluted in 0.1% DMSO, incubated for 18 h then washed and lysed in 50 uL RIPA buffer (50 mM Tris pH8, 150 mM NaCl, 1% Tx-100, 0.1% SDS, 0.5% sodium deoxycholate) supplemented with protease and phosphatase inhibitors. The lysates were clarified at 4000 rpm at 4° C. for 10 minutes then aliquots were added into a 96-well ELISA plate of Novex Human c-myc ELISA kit from Life Technologies Catalog #KHO2041. 50 ul of c-Myc Detection antibody was added into every well, the plates incubated at room temperature for 3 hrs, then washed with ELISA wash buffer. 100 uL of the anti-rabbit IgG-HRP secondary antibody was added to each well and incubated at room temperature for 30 minutes. The plates were washed with ELISA wash buffer, 100 μL TMB added to each well, and then monitored every 5 minutes for a color change. 100 μL of stop solution is added and the plates read at 450 nm.

`Cc1sc2c(c1C)C(c1ccc(Cl)cc1)=N[C@@H](CC(=O)N[C@@H](C)c1ccc(OCCCCNc3cccc4c3C(=O)N(C3CCC(=O)NC3=O)C4=O)cc1)c1nnc(C)n1-2` (stereo partly drawn) [Compound 23, 2-((9S)-7-(4-chlorophenyl)-4,5,13-trimethyl-3-thia-1,8,11,12-tetraazatricyclo [8.3.0.02,6]trideca-2(6),4,7,10, 12-pentaen-9-yl)-N-((1S)-1-(4-(4-((2-(2,6-dioxopiperidin-3-yl)-1,3-dioxo-2,3-dihydro-1H-isoindol-4-yl)amino)butoxy)phenyl)ethyl) acetamide] was tested, and the IC50 was > 50 nM.

In the case of `Cc1sc2c(c1C)C(c1ccc(Cl)cc1)=N[C@@H](CC(=O)NCCCOCCCNc1cccc3c1C(=O)N(C1CCC(=O)NC1=O)C3=O)c1nnc(C)n1-2` (stereo partly drawn) [Compound 24, 2-((9S)-7-(4-chlorophenyl)-4,5,13-trimethyl-3-thia-1,8,11,12-tetraazatricyclo [8.3.0.02,6]trideca-2(6),4,7,10, 12-pentaen-9-yl)-N-(3-(3-((2-(2,6-dioxopiperidin-3-yl)-1,3-dioxo-2,3-dihydro-1H-isoindol-4-yl)amino)propoxy)propyl)acetamide], the IC50 is reported as < 50 nM.

With `Cc1sc2c(c1C)C(c1ccc(Cl)cc1)=N[C@@H](CC(=O)NCCCNc1cccc3c1C(=O)N(C1CCC(=O)NC1=O)C3=O)c1nnc(C)n1-2` (stereo partly drawn) [Compound 25, 2-((9S)-7-(4-chlorophenyl)-4,5,13-trimethyl-3-thia-1,8,11,12-tetraazatricyclo [8.3.0.02,6]trideca-2(6),4,7,10,12-pentaen-9-yl)-N-(3-((2-(2,6-dioxopiperidin-3-yl)-1,3-dioxo-2,3-dihydro-1H-isoindol-4-yl)amino)propyl) acetamide] the IC50 was > 50 nM.

For `Cc1sc2c(c1C)C(c1ccc(Cl)cc1)=N[C@@H](CC(=O)NCCOCCNc1cccc3c1C(=O)N(C1CCC(=O)NC1=O)C3=O)c1nnc(C)n1-2` (stereo partly drawn) [Compound 27, 2-((9S)-7-(4-chlorophenyl)-4,5,13-trimethyl-3-thia-1,8,11,12-tetraazatricyclo [8.3.0.02,6]trideca-2(6),4,7,10,12-pentaen-9-yl)-N-(2-(2-((2-(2,6-dioxopiperidin-3-yl)-1,3-dioxo-2,3-dihydro-1H-isoindol-4-yl)amino)ethoxy)ethyl)acetamide], the IC50 was < 50 nM.

For `Cc1sc2c(c1C)C(c1ccc(Cl)cc1)=N[C@@H](CC(=O)N[C@H](C)c1ccc(OCCCCNc3cccc4c3C(=O)N(C3CCC(=O)NC3=O)C4=O)cc1)c1nnc(C)n1-2` (some centres unmarked) [Compound 28], the IC50 was < 50 nM.

For `Cc1sc2c(c1C)C(c1ccc(Cl)cc1)=N[C@@H](CC(=O)N[C@H](C)c1ccc(OCCOCCNc3cccc4c3C(=O)N(C3CCC(=O)NC3=O)C4=O)cc1)c1nnc(C)n1-2` (stereo partly drawn) [Compound 29, 2-((9S)-7-(4-chlorophenyl)-4,5,13-trimethyl-3-thia-1,8,11,12-tetraazatricyclo [8.3.0.02,6]trideca-2(6),4,7,10, 12-pentaen-9-yl) N-((1R)-1-(4-(2-(2-((2-(2,6-dioxopiperidin-3-yl)-1,3-dioxo-2,3-dihydro-1H-isoindol-4-yl)amino)ethoxy)ethoxy)phenyl)ethyl) acetamide], the IC50 was < 50 nM.

In the case of `Cc1sc2c(c1C)C(c1ccc(Cl)cc1)=N[C@@H](CC(=O)N[C@H](C)c1ccc(OCCCNc3cccc4c3C(=O)N(C3CCC(=O)NC3=O)C4=O)cc1)c1nnc(C)n1-2` (stereo partly drawn) [Compound 30, 2-((9S)-7-(4-chlorophenyl)-4,5,13-trimethyl-3-thia-1,8,11,12-tetraazatricyclo [8.3.0.02,6]trideca-2(6),4,7,10, 12-pentaen-9-yl)-N-((1R)-1-(4-(3-((2-(2,6-dioxopiperidin-3-yl)-1,3-dioxo-2,3-dihydro-1H-isoindol-4-yl)amino)propoxy)phenyl)ethyl) acetamide], the IC50 is reported as < 50 nM.

`Cc1sc2c(c1C)C(c1ccc(Cl)cc1)=N[C@@H](CC(=O)Nc1cnc(-c3ccc(OCCCNc4cccc5c4C(=O)N(C4CCC(=O)NC4=O)C5=O)cc3)nc1)c1nnc(C)n1-2` (stereo partly drawn) [Compound 31, 2-((9S)-7-(4-chlorophenyl)-4,5,13-trimethyl-3-thia-1,8,11,12-tetraazatricyclo [8.3.0.02,6]trideca-2(6),4,7,10, 12-pentaen-9-yl)-N-(2-(4-(3-((2-(2,6-dioxopiperidin-3-yl)-1,3-dioxo-2,3-dihydro-1H-isoindol-4-yl)amino)propoxy)phenyl)pyrimidin-5-yl)acetamide] was tested, and the IC50 was < 50 nM.

With `Cc1sc2c(c1C)C(c1ccc(Cl)cc1)=N[C@@H](CC(=O)Nc1ccc(OCCCOCCNc3cccc4c3C(=O)N(C3CCC(=O)NC3=O)C4=O)c(F)c1)c1nnc(C)n1-2` (stereo partly drawn) [Compound 32, 2-((9S)-7-(4-chlorophenyl)-4,5,13-trimethyl-3-thia-1,8,11,12-tetraazatricyclo [8.3.0.02,6]trideca-2(6),4,7,10, 12-pentaen-9-yl)-N-(4-(3-(2-((2-(2,6-dioxopiperidin-3-yl)-1,3-dioxo-2,3-dihydro-1H-isoindol-4-yl)amino)ethoxy)propoxy)-3-fluorophenyl) acetamide] the IC50 was < 50 nM.

With `Cc1sc2c(c1C)C(c1ccc(Cl)cc1)=N[C@@H](CC(=O)Nc1ccc(OCCCCOCCCNc3cccc4c3C(=O)N(C3CCC(=O)NC3=O)C4=O)cc1F)c1nnc(C)n1-2` (stereo partly drawn) [Compound 33, 2-((9S)-7-(4-chlorophenyl)-4,5,13-trimethyl-3-thia-1,8,11,12-tetraazatricyclo [8.3.0.02,6]trideca-2(6),4,7,10, 12-pentaen-9-yl)-n-(4-(4-(3-((2-(2,6-dioxopiperidin-3-yl)-1,3-dioxo-2,3-dihydro-1h-isoindol-4-yl)amino)propoxy)butoxy)-2-fluorophenyl) acetamide] the IC50 was < 50 nM.

In the case of `Cc1sc2c(c1C)C(c1ccc(Cl)cc1)=N[C@@H](CC(=O)Nc1ccc(OCCCCOCCCNc3cccc4c3C(=O)N(C3CCC(=O)NC3=O)C4=O)c(F)c1)c1nnc(C)n1-2` (stereo partly drawn) [Compound 34, 2-((9S)-7-(4-chlorophenyl)-4,5,13-trimethyl-3-thia-1,8,11,12-tetraazatricyclo [8.3.0.02,6]trideca-2(6),4,7,10, 12-pentaen-9-yl)-N-(4-(4-(3-((2-(2,6-dioxopiperidin-3-yl)-1,3-dioxo-2,3-dihydro-1H-isoindol-4-yl)amino)propoxy)butoxy)-3-fluorphenyl) acetamide], the IC50 is reported as < 50 nM.

`Cc1sc2c(c1C)C(c1ccc(Cl)cc1)=N[C@H](CC(=O)Nc1ccc(OCCOCCOCCOCCNc3cccc4c3CN(C3CCC(=O)NC3=O)C4=O)cc1)c1nnc(C)n1-2` (stereo partly drawn) [Compound 35, 2-((9R)-7-(4-chlorophenyl)-4,5,13-trimethyl-3-thia-1,8,11,12-tetraazatricyclo [8.3.0.02,6]trideca-2(6),4,7,10, 12-pentaen-9-yl)-N-(4-((1-(2-(2,6-dioxopiperidin-3-yl)-1-oxo-2,3-dihydro-1H-isoindol-4-yl)-4,7,10-trioxa-1-azadodecan-12-yl)oxy)phenyl) acetamide] was tested, and the IC50 was < 50 nM.

For `Cc1sc2c(c1C)C(c1ccc(Cl)cc1)=N[C@@H](CC(=O)N[C@@H](C)c1ccc(-c3ncc(OCCOCCNc4cccc5c4C(=O)N(C4CCC(=O)NC4=O)C5=O)cn3)cc1)c1nnc(C)n1-2` (stereo partly drawn) [Compound 36, 2-[(9S)-7-(4-chlorophenyl)-4,5,13-trimethyl-3-thia-1,8,11,12-tetraazatricyclo [8.3.0.0^2,^6]trideca-2(6),4,7,10,12-pentaen-9-yl]-N-[(1S)-1-(4-{5-[2-(2-{[2-(2,6-dioxopiperidin-3-yl)-1,3-dioxo-2,3-dihydro-1H-isoindol-4-yl]amino}ethoxy)ethoxy]pyrimidin-2-yl}phenyl)ethyl] acetamide], the IC50 was < 50 nM.

In the case of `Cc1sc2c(c1C)C(c1ccc(Cl)cc1)=N[C@@H](CC(=O)NCCOCCOCCNc1cccc3c1C(=O)N(C1CCC(=O)NC1=O)C3=O)c1nnc(C)n1-2` (stereo partly drawn) [Compound 37, 2-[(9S)-7-(4-chlorophenyl)-4,5,13-trimethyl-3-thia-1,8,11,12-tetraazatricyclo [8.3.0.0^2,^6]trideca-2(6),4,7,10,12-pentaen-9-yl]-N-{2-[2-(2-{[2-(2,6-dioxopiperidin-3-yl)-1,3-dioxo-2,3-dihydro-1H-isoindol-4-yl]amino}ethoxy)ethoxy]ethyl} acetamide], the IC50 is reported as < 50 nM.

For `Cc1sc2c(c1C)C(c1ccc(Cl)cc1)=N[C@@H](CC(=O)N[C@H](C)c1ccc(OCCOCCNc3cccc4c3CN(C3CCC(=O)NC3=O)C4=O)cc1)c1nnc(C)n1-2` (some centres unmarked) [Compound 38], the IC50 was < 50 nM.

For `Cc1sc2c(c1C)C(c1ccc(Cl)cc1)=N[C@@H](CC(=O)NCCOCCNc1cccc3c1CN(C1CCC(=O)NC1=O)C3=O)c1nnc(C)n1-2` (stereo partly drawn) [Compound 39, 2-[(9S)-7-(4-chlorophenyl)-4,5,13-trimethyl-3-thia-1,8,11,12-tetraazatricyclo [8.3.0.0^2,^6]trideca-2(6),4,7,10,12-pentaen-9-yl]-N-[2-(2-{[2-(2,6-dioxopiperidin-3-yl)-1-oxo-2,3-dihydro-1H-isoindol-4-yl]amino}ethoxy)ethyl]acetamide], the IC50 was > 50 nM.

With `Cc1sc2c(c1C)C(c1ccc(Cl)cc1)=N[C@@H](CC(=O)N[C@@H](C)c1ccc(-c3ncc(OCCCNc4cccc5c4C(=O)N(C4CCC(=O)NC4=O)C5=O)cn3)cc1)c1nnc(C)n1-2` (stereo partly drawn) [Compound 40, 2-((S)-4-(4-chlorophenyl)-2,3,9-trimethyl-6H-thieno[3,2-f][1,2,4]triazolo[4,3-a][1,4]diazepin-6-yl)-N-((1S)-1-(4-(5-(3-(2-(2,6-dioxopiperidin-3-yl)-1,3-dioxoisoindolin-4-ylamino)propoxy)pyrimidin-2-yl)phenyl)ethyl)acetamide] the IC50 was < 50 nM.
